These results are taken from PMC8870237, “Improved Multimodal Tumor Necrosis Imaging with IRDye800CW-DOTA Conjugated to an Albumin-Binding Domain” (Cancers, 2022).

“Also recorded” adds a separate entry of the source.

Series [1] is described as follows: n-octanol/PBS distribution coefficient (LogD7.4). It counts as physicochemical. Conditions: LogD7.4, indium-111 labeled material, triplicates. The protocol:
The [^111In]1, [^111In]2, and [^111In]3 were labeled at a molar activity of 10 MBq/nmol and 100 kBq was added to n-octanol (500 µL) and PBS (500 µL). After vigorous vortexing, the vial was centrifuged at 16.1 × 1000 g for 3 min. The octanol phase was carefully pipetted into a new vial and both layers were centrifuged again. From both the organic and the aqueous layers, samples (10 µL) were taken out and counted for activity on a γ-counter. LogD values were calculated as follows: Log ([NACA]n-octanol/[NACA]PBS). These experiments were performed as triplicates.

Series [2] is described as follows: In vitro protein binding in mouse serum (ultrafiltration). It counts as in vitro ADME. To be noted: 37 °C, 30 min, indium-111 labeled material. On the procedure: Protein binding of the NACAs was determined as reported elsewhere. The NACAs were labeled with indium-111 (50 MBq/nmol), added to mouse serum (1 MBq/500 µL), and incubated at 37 °C for 30 min. Four portions of 10 µL were taken and counted on a γ-counter. The remaining serum was transferred to a centifree ultrafiltration device (4104 centrifugal filter units; Millipore, 30 kDa nominal molecular weight limit, methylcellulose micro partition membranes equilibrated once with 5% v/v Tween-80 in phosphate-buffered saline (PBS) and then trice with PBS) and centrifuged at 7.0 × 1000 g for 40 min at room temperature. Four portions of 10 µL from the filtrates were counted for radioactivity in a γ-counter. The amount of plasma-bound radioligand was calculated as the fraction between the radioactivity measured in the filtrate portions relative to the corresponding loading solution (set to 100%).

Series [3] has as its system 4T1-Luc2 cells. Nature of the series: In vitro dead/alive cell binding assay (fluorescence and γ-counting). To be noted: 100 nM, EtOH-killed or alive 4T1-Luc2 cells; for dead/alive cell binding, fluorescence signal: non-radioactive precursors, 30 min, 37 °C, 800 nm; for dead/alive cell binding, radioactivity: indium-111 labeled, 2.5 MBq/nmol, γ-counting. The class given is cell-based, mouse. On the procedure:
The 4T1-Luc2 cells were cultured in RPMI-1640 medium containing 10% fetal bovine, penicillin (100 U/mL), and streptomycin ([…]) 37 °C under a humidified atmosphere with 5% CO2. The cells were seeded in 24 well plates (1 × 10^5 cells per well). The next day, the cells were killed with EtOH (70%, 50 μL) or kept alive and incubated for 30 min at 37 °C with 100 nM of the NACAs in culturing medium. The plate was then imaged on an Odyssey (Li-Cor, 800 nm laser intensity 5.0).
Similarly, these killed and alive cells were incubated with the indium-111 labeled NACAs (100 nM, 2.5 MBq/nmol) in culturing medium. The cells were washed with PBS and collected with NaOH (1.0 M) for γ-counting. These experiments were performed as triplicates.

The test system of series [4] is 4T1-Luc2 cells. Nature of the series: Fluorescence microscopy of dead and alive cells. It counts as cell-based, mouse. To be noted: unlabeled, 100 nM, 30 min, 37 °C. On the procedure: The 4T1-Luc2 cells were seeded on 10 mm diameter coverslips in 24 well plates (10^5 cells per well). The cells were kept alive or killed with 50 µL EtOH (70%) and incubated in culturing medium with or without unlabeled 3 (100 nM) for 30 min at 37 °C. The cells were gently washed with PBS three times and incubated with Calcein-AM (CAM, 2 µM) and propidium iodide (PI, 4 µM) in PBS for 30 min at 37 °C [24]. Then, the cells were fixated with PFA (4% in PBS, 10 min, RT) and nuclei were stained with DAPI (Sigma-Aldrich, 1:1000 in PBS, 5 min). After final washing with PBS, the coverslips were removed from the well plate and mounted on a microscope slide for fluorescence microscope imaging at 20× magnification.

The test system of the next series is MCF7-Luc2 tumors. Nature of the series: Tumor uptake in doxorubicin- or saline-treated MCF7-Luc2 tumor-bearing mice. The class given is in vivo, mouse. Conditions: 1 h p.i., ±SEM. On the procedure:
(§1) The quadruple modality imaging procedure is illustrated in Figure S21. The tumor-bearing mice were injected with [^111In]3 (20 MBq, 2 nmol) in 200 µL PBS into the tail vein. The following day, the mice fasted for four hours before they were injected with [^18F]FDG (10 MBq, 200 µL) in PBS. At 24 h p.i. of [^111In]3 and 1 h p.i. of [^18F]FDG, FLI imaging was performed with a 730 nm excitation and 760 nm emission filter for 400 ms with 4 × 4 binning. Then, the mice received an intraperitoneal injection of D-luciferin (150 mg/kg) maintaining the position of the mice in the bed unaltered. During the onset of the bioluminescence signal, PET/SPECT imaging was performed of the tumors with a 2 cm axial field of view over a total scan time of 30 min, followed by a 2 min full-body CT. Finally, BLI imaging was performed with an open filter for 400 ms with 4 × 4 binning. Imaging was performed under isoflurane anesthesia whilst maintaining the body temperature constant.
Six mice were inoculated bilaterally with MCF7-Luc2 cells (3.0 × 10^6), suspended in 30 µL PBS:Matrigel (1:1; v/v). On days 14, 16, and 18 after inoculation, the tumor-bearing mice received either doxorubicin (5 mg/kg, Janssen Pharmaceuticals, Beerse, Belgium) or a saline solution via i.v. injection. On days 21 and 22 after inoculation, the mice underwent the FLI, BLI, and PET/SPECT/CT imaging procedure (vide supra).
After the final imaging experiments, the mice were sacrificed by cervical dislocation, tumors and organs were collected, weighted, and activity was accurately quantified by γ-counting to determine radioactivity uptake in the percentage of injected dose per gram (%ID/g). After γ-counting, the tumors were frozen in liquid nitrogen and stored at −80 °C overnight. Adjacent cryosections (10 µm) were prepared of the tumor centers for autoradiography. The sections were stored at −20 °C for the radioactivity to decay, before 800 nm fluorescence imaging and histochemical dead cell staining.

The next series concerns EMT6-Luc2 tumors. Nature of the series: Tumor uptake in EMT6-Luc2 tumor-bearing mice. Conditions: untreated, 1 h p.i., ±SEM. The class given is in vivo, mouse. On the procedure: as §1, with “constant. […]” for “constant.”
After the final imaging experiments, the mice were sacrificed by cervical dislocation, tumors and organs were collected, weighted, and activity was accurately quantified by γ-counting to determine radioactivity uptake in the percentage of injected dose per gram (%ID/g). […] The sections were stored at −20 °C for the radioactivity to decay, before 800 nm fluorescence imaging and histochemical dead cell staining.

In the next series the test system is 4T1-Luc2 tumors. On the set-up: method as in PMID 32514888. Conditions: comparison value; cited from earlier work.
A short description of series [5]: In vivo stability (radio-HPLC of urine 1 h after injection). On the set-up: species or system mouse. To be noted: mice, i.v., 1 h p.i. An excerpt:
After an hour, the mice were sacrificed by cervical dislocation and blood and urine were collected, which were frozen in liquid nitrogen directly after extraction. […] The supernatant was collected and analyzed by radio-HPLC (Method-D).

Broadly, the LogD is the decadic logarithm of the distribution of all forms, ionised or not, between an organic phase and buffer at a given pH. Lower therefore signals lower lipophilicity. In turn, `CC1(C)C(=CC=C2CCCC(C=CC3=[N+](CCCCCC(=O)NCCOCCOCCOCCOCCNC(=O)CN4CCN(CC(=O)O)CCN(CC(=O)O)CCN(CC(=O)O)CC4)c4ccc(S(=O)(=O)O)cc4C3(C)C)=C2Oc2ccc(S(=O)(=O)O)cc2)N(CCCCS(=O)(=O)O)c2ccc(S(=O)(=O)O)cc21` [Compound 1] returned a pH-dependent lipophilicity (LogD) in series [1] of −3.58 ± 0.07. Moreover, in series [2], the “Protein Binding” value worked out at 70 ± 0.9%. In addition, the “dead/alive cell binding, fluorescence signal” value in the series with 4T1-Luc2 cells [3] was “specifically bound to dead cells and not to live cells”.

On to `CC1(C)C(=CC=C2CCCC(C=CC3=[N+](CCCCCC(=O)NCCCCC(NC(=O)C(CCCCNC(=O)CCCc4ccc(I)cc4)NC(=O)CN4CCN(CC(=O)O)CCN(CC(=O)O)CCN(CC(=O)O)CC4)C(N)=O)c4ccc(S(=O)(=O)O)cc4C3(C)C)=C2Oc2ccc(S(=O)(=O)O)cc2)N(CCCCS(=O)(=O)O)c2ccc(S(=O)(=O)O)cc21` (stereo not drawn) [Compound 2], for which the LogD in series [1] is given as −2.47 ± 0.01. Also, the “Protein Binding” value in series [2] was found to be 95 ± 0.1%. For the same compound, the “dead/alive cell binding, fluorescence signal” value in the series with 4T1-Luc2 cells [3] is on record as “considerably stronger binding to the dead cells than compound 1”.

In series [1], `CC1(C)C(/C=C/C2=C(Oc3ccc(S(=O)(=O)O)cc3)C(=C/C=C3\N(CCCCS(=O)(=O)O)c4ccc(S(=O)(=O)O)cc4C3(C)C)/CCC2)=[N+](CCCCCC(=O)NCCCC[C@@H](NC(=O)CCCc2ccc(I)cc2)C(=O)NCc2ccc(CNC(=O)CN3CCN(CC(=O)O)CCN(CC(=O)O)CCN(CC(=O)O)CC3)cc2)c2ccc(S(=O)(=O)O)cc21` [Compound 3] had a LogD of −2.73 ± 0.14. Moreover, in series [2], the “Protein Binding” value is recorded as 94 ± 0.2%. For the same compound, in the series on 4T1-Luc2 cells [3], the “dead/alive cell binding, fluorescence signal” value is recorded as “considerably stronger binding to the dead cells than compound 1”. The “NIR-fluorescence binding to dead and alive cells (microscopy)” value with 4T1-Luc2 cells [4] is “distinct NIR-fluorescent signal was observed from dead cells; also recorded: binds to dead cells and not to alive cells”.

Take `OC[C@H]1OC(O)[C@H]([18F])[C@@H](O)[C@@H]1O` (stereo partly drawn) [[^18F]FDG, reference compound]: the “tumor uptake of [18F]FDG” value in the series with MCF7-Luc2 tumors (after doxorubicin treatment (5 mg/kg i.v., 3 injections)) came to 1.79 ± 0.11 %ID/g; in the series with MCF7-Luc2 tumors (after saline treatment (control)), 3.02 ± 0.51 %ID/g; in the series with EMT6-Luc2 tumors, 4.13 ± 0.58 %ID/g.

As for `CC1(C)C(=CC=C2CCCC(C=CC3=[N+](CCCCCC(=O)NCCOCCOCCOCCOCCNC(=O)CN4CCN(CC(=O)[O-])CCN(CC(=O)[O-])CCN(CC(=O)[O-])CC4)c4ccc(S(=O)(=O)O)cc4C3(C)C)=C2Oc2ccc(S(=O)(=O)O)cc2)N(CCCCS(=O)(=O)O)c2ccc(S(=O)(=O)O)cc21.[111In+3]` [[^111In]1, [^111In]In-DOTA-PEG4-IRDye800CW], in series [2], the “Protein Binding” value is given as 70%. Further, the “radioactive tumor uptake in the SPECT images” value in the series on 4T1-Luc2 tumors is listed as 0.26 ± 0.05 %ID/mL.

On to `CC1(C)C(=CC=C2CCCC(C=CC3=[N+](CCCCCC(=O)NCCCC[C@H](NC(=O)[C@H](CCCCNC(=O)CCCc4ccc(I)cc4)NC(=O)CN4CCN(CC(=O)[O-])CCN(CC(=O)[O-])CCN(CC(=O)[O-])CC4)C(N)=O)c4ccc(S(=O)(=O)O)cc4C3(C)C)=C2Oc2ccc(S(=O)(=O)O)cc2)N(CCCCS(=O)(=O)O)c2ccc(S(=O)(=O)O)cc21.[111In+3]` [[^111In]2], for which the “dead/alive cell binding, radioactivity” value with 4T1-Luc2 cells [3] is “increased as compared to [^111In]1”. Besides, in series [5], the “in vivo stability” value is recorded as “decomposed after an hour”.

With `NCCCC[C@H](NC(=O)CCCc1ccc(I)cc1)C(=O)NCc1ccc(CNC(=O)CN2CCN(CC(=O)[O-])CCN(CC(=O)[O-])CCN(CC(=O)[O-])CC2)cc1.[111In+3]` [[^111In]8], the “dead/alive cell binding, radioactivity” value in the series on 4T1-Luc2 cells [3] is reported as “did not show considerable dead cell binding”.
